Experimental data reported in patent US20050113397A1, “Imidazo[1,2-a]pyridine derivative” (priority 2002, published 2005).
Values after ≈ are worked out from the molar mass of the structure shown.

Legend:
Assay in all cases: Antifungal activity (MIC), US NCCLS Standard Method M27-A, yeasts
Type in all cases: cell-based
Saccharomyces cerevisiae = details: for MIC: read-out: MIC (minimal inhibitory concentration for growth)
Experimental: (§1) The antifungal activity of the compound of the invention was determined according to the US NCCLS Standard Method (M27-A, 1997) against yeasts (Candida, Cryptococcus); and according to the US NCCLS Standard Method (M38-P, 1998) against molds (Aspergillus). The result is expressed in values of MIC (minimal inhibitory concentration for growth, μg/ml) in Table 7.

Candida krusei = details: for MIC: Pichia kudriavzevii, read-out: MIC (minimal inhibitory concentration for growth)
Experimental: as §1

Candida glabrata = details: for MIC: Nakaseomyces glabratus, read-out: MIC (minimal inhibitory concentration for growth)
Experimental: as §1

Structure (SMILES)	MIC (Saccharomyces cerevisiae) [µg/mL]	MIC (Candida krusei) [µg/mL]	MIC (Candida glabrata) [µg/mL]	MIC (minimal inhibitory concentration for growth) (Saccharomyces cerevisiae) [µg/mL]	MIC (minimal inhibitory concentration for growth) (Candida krusei) [µg/mL]	MIC (minimal inhibitory concentration for growth) (Candida glabrata) [µg/mL]
CCCCCCc1c(C)c(C#N)c2nc3ccccc3n2c1N1CC(CN(C)C)C1 [Example 11, 2-n-Hexyl-1-[3-(dimethylaminomethyl)azetidin-1-yl]-3-methylpyrido[1,2-a]benzimidazole-4-carbonitrile]	2 (≈ 4.96 µM)	32 (≈ 79.3 µM)	16 (≈ 39.6 µM)			
CCc1c(C)c(C#N)c2nc3ccccc3n2c1C1=CC(N)CC1 (stereo not drawn) [Example 95, 1-(3-Amino-1-cyclopenten-1-yl)-2-ethyl-3-methylpyrido[1,2-a]benzimidazole-4-carbonitrile]	16 (≈ 50.6 µM)	64 (≈ 202 µM)	32 (≈ 101 µM)			
CCCCCCc1c(C)c(C#N)c2nc3ccccc3n2c1N1CCCN(C)CC1 [Example 12, 2-n-Hexyl-1-(4-methylhomopiperazin-1-yl)-3-methylpyrido[1,2-a]benzimidazole-4-carbonitrile]	> 32	> 128	128 (≈ 317 µM)			
Cc1c(-c2ccccc2)c(N2CC[C@H](N(C)C)C2)n2c(nc3ccccc32)c1C#N.O=CO [Example 6]				<0.063	0.5	<0.063
CCc1c(C)c(C#N)c2nc3ccccc3n2c1NCCN(CC)CC [Example 1, 1-(2-N′,N′-Diethylaminoethylamino)-2-ethyl-3-methylpyrido[1,2-a]benzimidazole-4-carbonitrile]				16	8	2

Second part, the compound after the results:

MIC (Saccharomyces cerevisiae) [µg/mL]	MIC (Candida krusei) [µg/mL]	MIC (Candida glabrata) [µg/mL]	MIC (minimal inhibitory concentration for growth) (Saccharomyces cerevisiae) [µg/mL]	MIC (minimal inhibitory concentration for growth) (Candida krusei) [µg/mL]	MIC (minimal inhibitory concentration for growth) (Candida glabrata) [µg/mL]	Structure (SMILES)
			64	>128	16	Cc1c(Cc2cccc(N)c2)c(N2CC[C@H](N(C)C)C2)n2c(nc3ccccc32)c1C#N [Example 60, 2-(3-Aminobenzyl)-1-[(3S)-dimethylaminopyrrolidinyl]-3-methylpyrido[1,2-a]benzimidazole-4-carbonitrile]
			16	16	32	Cc1c(CCO)c(N2CC[C@H](N(C)C)C2)n2c(nc3ccccc32)c1C#N [Example 66, 1-[(3S)-dimethylaminopyrrolidin-1-yl]-2-(2-hydroxyethyl)-3-methylpyrido[1,2-a]benzimidazole-4-carbonitrile]
			2	8	1	Cc1c(C(C)C)c(N2CC[C@H](N(C)C)C2)n2c(nc3ccccc32)c1C#N [Example 87, 2-Isopropyl-1-[(3S)-dimethylaminopyrrolidin-1-yl]-3-methylpyrido[1,2-a]benzimidazole-4-carbonitrile]
